From patent US12661356B2, “L718 and/or L792 mutant treatment-resistant EGFR inhibitor” (TAIHO PHARMACEUTICAL CO., LTD., priority 2018, dated 2026)

Assays:
Test in all cases: Intracellular EGFR phosphorylation, mutant EGFR forced expression system using HEK293 cells
Assay type in all cases: cell-based
Conditions in all cases: 6 hours incubation, p-EGFR (Tyr1068)/EGFR
[1] = target: T1, human EGFR Ex19del+T790M+L792Y (Homo sapiens, UniProt P00533, DEL746-750/L792Y/T790M)
T1 construct: expressed in transfected cells; host or cells: Jump-In Grip HEK293 cells (Thermo Fisher Scientific)

human EGFR L858R = target: T2, human EGFR L858R (Homo sapiens, UniProt P00533, L858R)
T2 construct: expressed in transfected cells; host or cells: Jump-In Grip HEK293 cells (Thermo Fisher Scientific)

[2] = target: T3, human EGFR Ex19del+T790M+L792H (Homo sapiens, UniProt P00533, DEL746-750/L792H/T790M)
T3 construct: expressed in transfected cells; host or cells: Jump-In Grip HEK293 cells (Thermo Fisher Scientific)

human EGFR Ex19del+T790M = target: T4, human EGFR Ex19del+T790M (Homo sapiens, UniProt P00533, DEL746-750/T790M)
T4 construct: expressed in transfected cells; host or cells: Jump-In Grip HEK293 cells (Thermo Fisher Scientific)

[3] = target: T5, human EGFR Ex19del+T790M+L718Q (Homo sapiens, UniProt P00533, DEL746-750/L718Q/T790M)
T5 construct: expressed in transfected cells; host or cells: Jump-In Grip HEK293 cells (Thermo Fisher Scientific)

human EGFR L858R+T790M = target: T6, human EGFR L858R+T790M (Homo sapiens, UniProt P00533, L858R/T790M)
T6 construct: expressed in transfected cells; host or cells: Jump-In Grip HEK293 cells (Thermo Fisher Scientific)
T6 sequence (P00533 25-1210 T790M/L858R): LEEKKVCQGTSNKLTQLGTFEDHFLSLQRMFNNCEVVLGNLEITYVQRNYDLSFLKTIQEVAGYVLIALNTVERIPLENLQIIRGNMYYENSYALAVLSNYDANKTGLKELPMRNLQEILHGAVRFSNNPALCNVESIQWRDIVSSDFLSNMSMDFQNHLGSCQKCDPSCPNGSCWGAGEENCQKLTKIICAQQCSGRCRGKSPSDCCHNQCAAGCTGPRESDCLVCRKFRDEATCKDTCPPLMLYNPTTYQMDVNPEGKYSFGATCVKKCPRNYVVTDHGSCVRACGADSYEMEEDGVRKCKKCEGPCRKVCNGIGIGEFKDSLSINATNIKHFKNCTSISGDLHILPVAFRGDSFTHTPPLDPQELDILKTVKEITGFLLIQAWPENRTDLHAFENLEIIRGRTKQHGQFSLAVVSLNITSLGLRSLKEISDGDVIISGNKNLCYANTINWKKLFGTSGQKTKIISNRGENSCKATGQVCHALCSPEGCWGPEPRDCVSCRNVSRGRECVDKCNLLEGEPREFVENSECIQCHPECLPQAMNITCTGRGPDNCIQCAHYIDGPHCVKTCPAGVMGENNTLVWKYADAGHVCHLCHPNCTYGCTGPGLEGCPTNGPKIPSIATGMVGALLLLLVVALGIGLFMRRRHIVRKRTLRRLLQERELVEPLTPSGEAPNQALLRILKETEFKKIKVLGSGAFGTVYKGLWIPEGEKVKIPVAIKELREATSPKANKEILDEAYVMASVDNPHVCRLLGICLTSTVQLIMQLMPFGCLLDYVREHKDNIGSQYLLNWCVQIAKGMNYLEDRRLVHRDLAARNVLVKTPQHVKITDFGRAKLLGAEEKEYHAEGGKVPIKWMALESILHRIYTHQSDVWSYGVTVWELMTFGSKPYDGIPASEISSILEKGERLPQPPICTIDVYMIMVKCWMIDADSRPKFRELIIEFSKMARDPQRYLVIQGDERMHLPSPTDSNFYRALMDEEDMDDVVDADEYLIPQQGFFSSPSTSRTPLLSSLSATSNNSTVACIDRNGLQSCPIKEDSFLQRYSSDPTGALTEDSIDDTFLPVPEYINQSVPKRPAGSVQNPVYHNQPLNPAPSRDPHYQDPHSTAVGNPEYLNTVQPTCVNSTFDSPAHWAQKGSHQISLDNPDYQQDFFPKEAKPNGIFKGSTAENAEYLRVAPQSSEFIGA

[4] = target: T7, human EGFR L858R+T790M+L792H (Homo sapiens, UniProt P00533, L792H/L858R/T790M)
T7 construct: expressed in transfected cells; host or cells: Jump-In Grip HEK293 cells (Thermo Fisher Scientific)

[5] = target: T8, human EGFR L858R+T790M+L792F (Homo sapiens, UniProt P00533, L792F/L858R/T790M)
T8 construct: expressed in transfected cells; host or cells: Jump-In Grip HEK293 cells (Thermo Fisher Scientific)
T8 sequence (P00533 25-1210 T790M/L792F/L858R): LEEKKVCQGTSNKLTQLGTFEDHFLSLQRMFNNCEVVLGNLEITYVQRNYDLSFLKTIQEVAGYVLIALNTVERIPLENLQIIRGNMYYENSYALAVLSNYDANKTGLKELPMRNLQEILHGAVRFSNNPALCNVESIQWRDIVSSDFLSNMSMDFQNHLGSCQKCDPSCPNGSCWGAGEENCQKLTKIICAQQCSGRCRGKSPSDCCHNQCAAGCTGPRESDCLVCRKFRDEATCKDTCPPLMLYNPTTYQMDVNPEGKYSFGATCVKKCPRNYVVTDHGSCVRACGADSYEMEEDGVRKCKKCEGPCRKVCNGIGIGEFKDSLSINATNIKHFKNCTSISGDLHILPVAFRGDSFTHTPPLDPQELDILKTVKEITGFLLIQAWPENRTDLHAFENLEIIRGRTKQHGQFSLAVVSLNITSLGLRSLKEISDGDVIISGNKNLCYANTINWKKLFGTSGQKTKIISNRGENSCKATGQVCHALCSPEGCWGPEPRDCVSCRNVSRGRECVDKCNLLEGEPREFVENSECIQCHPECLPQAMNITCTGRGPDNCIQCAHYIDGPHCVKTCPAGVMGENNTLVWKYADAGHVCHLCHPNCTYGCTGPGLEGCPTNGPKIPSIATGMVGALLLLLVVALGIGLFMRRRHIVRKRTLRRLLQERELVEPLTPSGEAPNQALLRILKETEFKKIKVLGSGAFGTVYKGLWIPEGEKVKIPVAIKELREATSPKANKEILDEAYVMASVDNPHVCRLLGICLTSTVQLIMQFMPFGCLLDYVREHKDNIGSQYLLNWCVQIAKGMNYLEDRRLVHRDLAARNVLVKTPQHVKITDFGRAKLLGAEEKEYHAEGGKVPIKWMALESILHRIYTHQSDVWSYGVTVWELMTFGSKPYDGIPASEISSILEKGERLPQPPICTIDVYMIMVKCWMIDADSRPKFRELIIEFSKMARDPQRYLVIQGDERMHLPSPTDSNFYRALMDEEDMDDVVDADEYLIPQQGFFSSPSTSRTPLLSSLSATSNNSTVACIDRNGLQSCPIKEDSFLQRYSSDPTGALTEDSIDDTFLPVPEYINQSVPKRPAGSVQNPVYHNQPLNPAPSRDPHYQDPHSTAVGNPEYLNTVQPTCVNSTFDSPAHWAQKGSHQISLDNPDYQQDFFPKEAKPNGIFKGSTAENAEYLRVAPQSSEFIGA

[6] = target: T9, human EGFR Ex19del+T790M+L792F (Homo sapiens, UniProt P00533, DEL746-750/L792F/T790M)
T9 construct: expressed in transfected cells; host or cells: Jump-In Grip HEK293 cells (Thermo Fisher Scientific)
T9 sequence (P00533 with tags, fused parts or gaps DEL746-750/T790M/L792F): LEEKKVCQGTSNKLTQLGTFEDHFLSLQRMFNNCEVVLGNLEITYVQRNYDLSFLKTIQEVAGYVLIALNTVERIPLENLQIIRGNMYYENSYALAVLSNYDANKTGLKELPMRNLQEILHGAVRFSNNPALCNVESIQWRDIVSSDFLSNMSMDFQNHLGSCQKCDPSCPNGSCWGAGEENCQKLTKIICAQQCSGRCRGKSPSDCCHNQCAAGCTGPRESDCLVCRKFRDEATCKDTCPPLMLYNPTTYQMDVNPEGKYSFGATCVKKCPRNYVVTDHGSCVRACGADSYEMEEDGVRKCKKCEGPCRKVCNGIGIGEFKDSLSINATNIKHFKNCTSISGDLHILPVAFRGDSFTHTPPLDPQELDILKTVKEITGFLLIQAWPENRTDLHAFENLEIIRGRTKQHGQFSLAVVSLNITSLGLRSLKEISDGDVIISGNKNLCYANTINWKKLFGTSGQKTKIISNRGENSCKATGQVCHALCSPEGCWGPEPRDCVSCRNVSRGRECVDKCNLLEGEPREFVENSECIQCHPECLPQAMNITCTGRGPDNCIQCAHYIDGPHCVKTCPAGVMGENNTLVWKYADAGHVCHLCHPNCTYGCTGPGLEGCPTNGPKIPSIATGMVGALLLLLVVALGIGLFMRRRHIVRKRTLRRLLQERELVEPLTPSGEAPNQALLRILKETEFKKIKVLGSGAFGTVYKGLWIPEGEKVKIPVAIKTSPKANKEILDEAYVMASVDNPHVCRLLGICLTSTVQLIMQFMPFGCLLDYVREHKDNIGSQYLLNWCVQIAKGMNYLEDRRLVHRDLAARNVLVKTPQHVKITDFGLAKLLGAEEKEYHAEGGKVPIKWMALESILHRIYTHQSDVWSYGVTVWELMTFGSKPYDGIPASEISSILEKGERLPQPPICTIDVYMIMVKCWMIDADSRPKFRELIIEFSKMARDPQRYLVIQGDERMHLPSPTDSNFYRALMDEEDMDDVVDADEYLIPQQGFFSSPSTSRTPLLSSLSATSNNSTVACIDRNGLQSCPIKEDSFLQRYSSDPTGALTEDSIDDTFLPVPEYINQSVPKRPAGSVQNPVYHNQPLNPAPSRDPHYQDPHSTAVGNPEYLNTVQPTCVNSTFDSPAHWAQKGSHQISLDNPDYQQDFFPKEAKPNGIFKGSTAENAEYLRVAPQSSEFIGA

[7] = target: T10, human EGFR Ex19del (Del E746-A750) (Homo sapiens, UniProt P00533, DEL746-750)
T10 construct: expressed in transfected cells; host or cells: Jump-In Grip HEK293 cells (Thermo Fisher Scientific)
T10 sequence (P00533 with tags, fused parts or gaps DEL746-750): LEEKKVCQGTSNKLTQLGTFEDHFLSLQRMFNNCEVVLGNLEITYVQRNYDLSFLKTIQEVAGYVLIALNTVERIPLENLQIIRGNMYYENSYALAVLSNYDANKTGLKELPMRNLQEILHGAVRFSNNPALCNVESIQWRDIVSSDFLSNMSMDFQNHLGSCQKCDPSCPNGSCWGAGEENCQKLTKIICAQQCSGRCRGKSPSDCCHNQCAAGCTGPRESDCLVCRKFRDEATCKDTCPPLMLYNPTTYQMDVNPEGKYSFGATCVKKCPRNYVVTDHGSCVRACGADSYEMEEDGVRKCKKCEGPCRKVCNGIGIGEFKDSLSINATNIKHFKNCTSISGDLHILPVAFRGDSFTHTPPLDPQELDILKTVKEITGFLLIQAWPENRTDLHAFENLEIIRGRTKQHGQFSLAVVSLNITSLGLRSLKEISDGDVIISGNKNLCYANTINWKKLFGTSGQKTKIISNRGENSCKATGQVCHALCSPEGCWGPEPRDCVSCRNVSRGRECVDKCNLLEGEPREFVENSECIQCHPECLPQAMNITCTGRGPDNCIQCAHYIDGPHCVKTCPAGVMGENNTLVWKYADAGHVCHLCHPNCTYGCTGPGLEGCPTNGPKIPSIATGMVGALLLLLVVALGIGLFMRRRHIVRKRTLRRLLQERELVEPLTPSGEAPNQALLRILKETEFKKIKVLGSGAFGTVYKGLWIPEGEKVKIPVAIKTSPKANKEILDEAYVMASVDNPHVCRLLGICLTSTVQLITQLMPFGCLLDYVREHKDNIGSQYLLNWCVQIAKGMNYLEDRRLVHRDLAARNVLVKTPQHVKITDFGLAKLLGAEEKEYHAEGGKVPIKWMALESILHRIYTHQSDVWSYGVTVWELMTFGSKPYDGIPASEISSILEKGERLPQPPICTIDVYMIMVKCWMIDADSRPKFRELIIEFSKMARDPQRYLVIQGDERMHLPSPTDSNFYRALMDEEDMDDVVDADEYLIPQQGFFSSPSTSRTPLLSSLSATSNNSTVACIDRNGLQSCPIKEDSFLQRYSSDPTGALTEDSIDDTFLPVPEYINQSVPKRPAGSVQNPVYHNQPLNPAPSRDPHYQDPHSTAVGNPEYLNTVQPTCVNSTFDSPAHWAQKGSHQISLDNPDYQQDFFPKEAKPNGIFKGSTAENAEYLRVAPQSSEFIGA

[8] = target: T11, human EGFR L858R+T790M+L792Y (Homo sapiens, UniProt P00533, L792Y/L858R/T790M)
T11 construct: expressed in transfected cells; host or cells: Jump-In Grip HEK293 cells (Thermo Fisher Scientific)

[9] = target: T12, human EGFR L858R+T790M+L718Q (Homo sapiens, UniProt P00533, L718Q/L858R/T790M)
T12 construct: expressed in transfected cells; host or cells: Jump-In Grip HEK293 cells (Thermo Fisher Scientific)

IC50 [1]: 6.54 ± 1.49 µM
IC50 (human EGFR L858R): 13.8 ± 3.8 µM
IC50 [2]: 11.1 ± 5.6 µM
IC50 (human EGFR Ex19del+T790M): 16.9 ± 5.9 µM
IC50 [3]: 82.5 ± 9 µM
IC50 (human EGFR L858R+T790M): 16 ± 2.6 µM
IC50 [4]: 15.3 ± 5 µM
IC50 [5]: 9.07 ± 4.74 µM
IC50 [6]: 6.25 ± 1.83 µM
IC50 [7]: 11.2 ± 6.4 µM
IC50 [8]: 11.3 ± 5.8 µM
IC50 [9]: 104 ± 40 µM
Compound: C=CC(=O)N[C@H]1C=C(C)c2c(-c3cnc4ccccc4c3)c3c(N)ncnc3n2C1 [Compound A, (S)—N-(4-amino-6-methyl-5-(quinolin-3-yl)-8,9-dihydropyrimido[5,4-b]indolizin-8-yl) acrylamide]
